Measured values reported in patent US20220119399A1, “COMPOUNDS AND COMPOSITIONS THAT CAUSE MYCN AND/OR CMYC DEGRADATION AND METHODS OF USE THEREOF” (THE TRUSTEES OF COLUMBIA UNIVERSITY IN THE CITY OF NEW YORK, priority 2018, published 2022).
pIC50: −log10 of the molar value. “Also recorded” adds a separate entry of the source.

How the values were obtained:
[1] = Metabolic stability in mouse liver microsomes; assay type: in vitro ADME
Protocol: Mouse liver microsomes (Xenotech) were diluted to 0.5 mg/mL in a solution containing 100 mM PBS buffer at 7.4 pH, an NADPH regenerating system (Promega), and test compounds at 20 μM. The mixture was incubated at 37° C. under gentle rotation for the indicated time points. The reaction was quenched by aliquoting 15 μL of solution into 60 μL ice-cold acetonitrile containing an internal standard. Test compounds were quantified by LC-MS using a system comprised of a Thermo Scientific Dionex Ultimate 3000 and a Bruker amaZon SL equipped with an electrospray ionization source controlled by a Bruker Hystar 3.2. Compounds were separated by injecting 20 μL of sample onto an Agilent Eclipse Plus C18 column (2.1×50 mm, […]) maintained at 20° C., with the flow rate set at 400 μL/min. Initial flow conditions were 60% solvent A (MilliQ H2O, 0.1% acetic acid), and 40% solvent B (HPLC-grade MeOH, 0.1% acetic acid). Solvent B was raised to 60% over 0.25 min and to 70% by 6.75 min. Solvent B was raised to 95% by 7 min and lowered back to 40% by 8 minutes; total run time was 9 min.

mTOR = mTOR (Homo sapiens, UniProt P42345); assay: Cell-free biochemical mTOR kinase assay
Protocol: (§1) Cell-free biochemical kinase assays were performed at Reaction Biology Corporation (Malvern, Pa.). In brief, kinase substrates were diluted into reaction buffer containing 20 mM Hepes (pH 7.5), 10 mM MgCl2, 1 mM EGTA, 0.02% Brij35, 0.02 mg/ml BSA, 0.1 mM Na3VO4, 2 mM DTT, 1% DMSO. Purified protein (CK2a1, CK2a2, or mTOR) was added to the substrate solution and gently mixed. Test compounds were diluted from 10 mM DMSO stock solutions into the reaction buffer using an Echo550 acoustic dispenser, followed by incubation at RT for 20 min. 33P-ATP (10 μCi/μL) was added to reaction mixture, following incubation for 2 h at RT. Reactions were then spotted onto P81 ion exchange paper and kinase activity was detected by filter binding method.

CK2a1 = biological target: T1, CK2a1 (Homo sapiens, UniProt P68400); assay: Cell-free biochemical CK2a1 kinase assay; conditions: for pIC50: read-out: IC50 of CK2a kinase activity
T1 construct: purchased Reaction Biology Corporation (Malvern, Pa.)
Protocol: as §1

MYCNA tumor xenografts = assay: Tumor growth of MYCNA tumor xenografts; assay type: in vivo, mouse; conditions: daily i.p. 20 mg/kg, 21 days, versus vehicle-only control
Protocol: (§2) 6-week old male mice were purchased from Charles River Laboratories, and housed in Columbia University's animal control barrier facilities, and mice were allowed one week to acclimate to their new environment. To establish tumor xenografts, 10×10^6 SK-N-Be2 cells were suspended in a 200 μL volume of 50% matrigel slurry. […] Mice were kept on standard chow diet (Purina), and their cage dressing changed twice weekly. Animals were investigated regularly for any sign of discomfort. […] To create the stock solution of isopomiferin, 5 mg of isopomiferin (MicroSource) was dissolved into 50 μL dimethyl sulfoxide (DMSO). To this 450 μL of cyclodextrin solution was added dropwise. Cyclodextrin is dissolved as a 50% w/v solution in 40% EtOH. It is important to add the cyclodextrin slowly and with continual mixing to solubilize the compound. This solution was added to one volume of PBS and filter-sterilized. This solution was then diluted to achieve appropriate concentrations for a 200 μL volume administration at 10 mg/kg to each mouse. The solution was administered to animals via intraperitoneal injection (i.p.). […]
(§3) The ability of the compounds to inhibit growth of MYCNA tumor xenografts was evaluated by treating tumor bearing mice with daily i.p. injections of 20 mg/kg isopomiferin or pomiferin. […] MYCN abundance was evaluated mid-experiment, following 14 days of treatment.

[2] = system: NCI-H69, NCI-H526, NCI-H4414 and A549 cells; assay: Cell viability of four lung cancer cell lines; assay type: cell-based; conditions: dose series
Protocol: Neuroblastoma (SK-N-Be2; IMR-32; NLF; SK-N-AS) and lung cancer cell lines (NCI-H69; NCI-H526; NCI-H441-4) were grown in Advanced RPMI medium (Life Technologies) supplemented with 10% FBS (Gibco), 1% GlutaMAX (Gibco), and 1% Penicillin/Streptomycin. A549 cells (NSCLC) was grown in F-12K medium (Gibco) with 10% FBS (Gibco), and 1% Penicillin/Streptomycin. Cell cultures were incubated at 37° C. with 5% CO2. For chemical screening, cells were trypsinized, counted and seeded into white opaque 384-well plates (Perkin Elmer) at a density of 1000 cells/well and incubated overnight. […] Cells were treated for 72 hrs, after which cell viability was determined using CellTiterGlo® luminescence assay, following the manufacturer's instructions (Promega). […] Cell viability data were analyzed and charted using PRISM v7.0 software (GraphPad). The dose-response curves were used to generate an inhibitory constant (IC50) value, which was averaged across the two cell lines from each subtype (ie: SK-N-AS and NLF as MESN NBL subtype; IMR-32 and SK-N-Be2 as MycN^AMP subtype). The IC50 values for each subtype were used to evaluate subtype selectivity of each compound, and identify compounds with enhanced potency in MycN^AMP NBL.

SK-N-Be2 cells = assay: Cell viability assay (CellTiterGlo) in SK-N-Be2 cells; assay type: cell-based, human; conditions: SK-N-Be2 cells
TEAD4 transcript = assay: RNASeq analysis of SK-N-Be2 cells, TEAD4 transcript; assay type: cell-based, human; conditions: 3 μM or 10 μM, 3 h and 6 h
Protocol: (§4) To uncover changes in gene expression that underpin responses to pomiferin and isopomiferin, RNASeq analysis of SK-N-Be2 cells was performed following treatment with the two active prenylated isoflavonoids as well as a null analog that served as a negative control. SK-N-Be2 cells were treated with either 3 μM or 10 μM of isopomiferin or pomiferin and sampled after 3 h and 6 h. […] By comparing the active to the null analogs, downstream analyses can focus on changes in gene expression associated with the MYCN signature.

[3] = Tolerability in tumor-bearing mice; assay type: in vivo; conditions: 10 mg/kg i.p., 24 hrs
Protocol: as §2, §3

MYCN transcript = assay: RNASeq analysis of SK-N-Be2 cells, MYCN transcript; assay type: cell-based, human; conditions: 3 μM or 10 μM, 3 h and 6 h
Protocol: as §4

T1 sequence (P68400 whole entry): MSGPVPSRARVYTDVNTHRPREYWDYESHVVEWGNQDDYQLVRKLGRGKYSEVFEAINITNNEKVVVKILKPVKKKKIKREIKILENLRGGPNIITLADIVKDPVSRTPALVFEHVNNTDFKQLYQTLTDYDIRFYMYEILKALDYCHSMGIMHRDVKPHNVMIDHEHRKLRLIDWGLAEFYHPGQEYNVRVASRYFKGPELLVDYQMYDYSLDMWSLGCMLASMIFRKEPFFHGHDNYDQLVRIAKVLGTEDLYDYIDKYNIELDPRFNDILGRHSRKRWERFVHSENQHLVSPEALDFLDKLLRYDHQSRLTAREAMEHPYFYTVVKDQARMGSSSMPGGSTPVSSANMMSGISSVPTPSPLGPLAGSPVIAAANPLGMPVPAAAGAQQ

With `CC1(C)C=Cc2c(c3c(c4c(=O)c(-c5ccc(O)c(O)c5)coc24)OC(C)(C)CC3)O1` [isopomiferin] the “compound remaining in mouse liver microsomes” value ([1]; mouse, microsomes, 2 h) was roughly 50%, the mTOR kinase activity (mTOR) was “did not directly inhibit mTOR kinase activity” and the pIC50 (CK2a1) was roughly 5.15. The tumor growth (MYCNA tumor xenografts) was “these differences were not significant”, the “sensitivity of MycN-expressing versus non-expressing lung cancer lines (cell viability)” value [2] was “the MycN-expressing lines were more sensitive to isopomiferin treatment” and the IC20 (SK-N-Be2 cells; determined empirically) was 10 µM. The “TEAD4 transcript (RNASeq)” value (TEAD4 transcript) was “did not affect TEAD4”, the “toxicity observed in animals” value [3] was “No toxicity issues were observed” and the “MYCN transcript abundance (RNASeq)” value (MYCN transcript) was “suppressed MYCN transcript abundance”.
With `CC(C)=CCc1c2c(c3occ(-c4ccc(O)c(O)c4)c(=O)c3c1O)C=CC(C)(C)O2` [pomiferin] the “compound remaining in mouse liver microsomes” value ([1]; 2 h incubation, 0.5 mg/mL microsomes) was roughly 80%, the CK2a1 kinase activity (CK2a1) was “inhibiting both isoforms equally in a concentration-dependent manner” and the pIC50 (CK2a1) was roughly 5.15. For the same compound, the tumor growth (MYCNA tumor xenografts) was “reduced rates of tumor proliferation that were significant from the vehicle-only control arm by day 19”, the “sensitivity of MycN-expressing versus non-expressing lung cancer lines (cell viability)” value [2] was “MycN-driven cell lines were more sensitive to the compound” and the “inhibition of SK-N-Be2 cell viability (rank or activity in words)” value (SK-N-Be2 cells; 72 hrs) was “the most potent compound of the group; also recorded: the most potent inhibitor of viability”. The “TEAD4 transcript (RNASeq)” value (TEAD4 transcript) was “suppressed both MYCN and TEAD4 transcript” and the “MYCN transcript abundance (RNASeq)” value (MYCN transcript) was “suppressed MYCN transcript abundance”.
